Source: patent US6627769B2, “RGD-analog non-peptidic molecules having anti-adhesive, anti-migration and anti-proliferative effects” (Provincia Italiana Della Congregzaione dei Figli …, priority 2001, dated 2003)
Like-named read-outs stand apart in the source and are kept apart here.

Columns and labels:
[1] = tested on: RASMC proliferation stimulated with PDGF-BB
Procedure: (§1) For this test rat vascular smooth muscle cells (RASMC) primary cultures, obtained from adult male Wistar Rats, were used according to well known procedures (Facchiano et al., 2000, J. Cell Sci., 113(16), 2855-63).
(§2) Proliferation assay was performed, following standard procedures (Facchiano, et al., 2000, Cell Sci., 113(16), 2855-63), on 6-well plates (1×10^5 cells/plate) allowed to grow for 24 hours in DMEM supplemented with 10% Fetal Calf Serum (FCS) at 37° C. in 5% CO2. Medium was replaced with starvation medium containing either DMEM-0.1% BSA for 24 hours. Subsequently the starvation medium was replaced with fresh medium containing either 0.1% BSA alone or 0.1% BSA with PDGF-BB in the presence or absence of the RGD-analog. Every assay was carried out at different time intervals and cells were harvested and counted with hemacytometer.

[2] = tested on: RASMC migration toward PDGF-BB; assay: Migration assay in modified Boyden chambers toward PDGF-BB; type: cell-based, rat; settings: FIG. 2; PDGF-BB 10 ng/ml as chemoattractant
Procedure: Rat vascular smooth muscle cells (RASMC) were placed in the upper chamber of the Boyden apparatus. […] Cell migrated on the bottom face of the filters were counted at 400× magnification. Fifteen fields were counted for each filter and the average number of cells/field was calculated. Experiments were performed at least 4 times in duplicate.

[3] = tested on: RASMC proliferation stimulated with PDGF-BB; assay: Proliferation assay (PDGF-BB stimulated RASMC, cell counting); settings: FIG. 3
Procedure: as §1, §2

Compound | toxic effects on cells [1] | inhibition of RASMC migration toward PDGF-BB gradient [2] | anti-proliferative effect (inhibition of RASMC proliferation) ([3]; 100 ng/ml, stimulated for 48 hours with PDGF-BB (10 ng/ml)) | toxic effects on cells ([3]; added to cells in the absence of PDGF-BB)
NC(N)=NCCC[C@H](N)C(=O)NCC(=O)N[C@@H](CC(=O)O)C(=O)N[C@@H](CO)C(=O)O [RGDS] | do not show toxic effects | – | – | –
N=C(N)NCCC[C@H](NC(=O)[C@@H](Cc1ccccc1)NC(=O)[C@H](CCCNC(=N)N)NC(=O)CC(=O)N[C@@H](CC(=O)O)C(N)=O)C(N)=O [non-peptidic RGD-analog, H2N—RfRmD—NH2] | – | in a dose-dependent manner | marked anti-proliferative effect | do not show toxic effects
